{"source": "patent US20240158446A1", "about": "“CYCLIC COMPOUND HAVING SELECTIVE INHIBITORY ACTION ON KRAS OVER HRAS AND NRAS” (CHUGAI SEIYAKU KABUSHIKI KAISHA, priority 2021, published 2024)", "key": {"[1]": {"molecular_target": "GDP-bound HRAS wild-type protein (Homo sapiens, UniProt P01112)", "sequence (P01112 whole entry)": "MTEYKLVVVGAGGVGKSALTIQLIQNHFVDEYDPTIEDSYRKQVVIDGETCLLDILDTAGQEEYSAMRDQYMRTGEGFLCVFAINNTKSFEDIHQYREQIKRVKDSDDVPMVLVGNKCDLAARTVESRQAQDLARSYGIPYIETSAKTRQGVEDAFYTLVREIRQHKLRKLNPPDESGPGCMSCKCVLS", "assay": "Binding to HRAS by surface plasmon resonance (SPR), Single Cycle Kinetics", "details": "for HRAS/KRAS (ratio of KD value with respect to GDP-bound HRAS wild-type protein to KD value with respect to KRAS): SPR KD ratio HRAS/KRAS, class symbols; for HRAS/KRAS (ratio of KD value for HRAS to KD value for KRAS): GDP-bound HRAS wild-type protein vs GDP-bound KRAS wild-type protein"}, "[2]": {"molecular_target": "GDP-bound NRAS wild-type protein (Homo sapiens, UniProt P01111)", "sequence (P01111 whole entry)": "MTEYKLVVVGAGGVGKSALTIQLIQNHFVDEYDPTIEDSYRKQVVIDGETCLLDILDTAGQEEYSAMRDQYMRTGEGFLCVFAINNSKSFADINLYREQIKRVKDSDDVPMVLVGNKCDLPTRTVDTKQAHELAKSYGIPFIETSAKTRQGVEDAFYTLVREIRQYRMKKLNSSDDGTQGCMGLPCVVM", "assay": "Binding to NRAS by surface plasmon resonance (SPR), Single Cycle Kinetics", "details": "for NRAS/KRAS (ratio of KD value with respect to GDP-bound NRAS wild-type protein to KD value with respect to KRAS): SPR KD ratio NRAS/KRAS, class symbols; for NRAS/KRAS (ratio of KD value for NRAS to KD value for KRAS): GDP-bound NRAS wild-type protein vs GDP-bound KRAS wild-type protein"}}}
{"smiles": "CC[C@H](C)[C@@H]1NC(=O)[C@H](CC(C)C)N(C)C(=O)C[C@@H](C(=O)N(C)C)N(C)C(=O)[C@H](C2CCCC2)N(C)C(=O)C2(CC(C)(C)C2)NC(=O)[C@@H]2C[C@H](C)CN2C(=O)[C@H](CCc2ccc(C(F)(F)F)c(OC)c2)NC(=O)CN(C)C(=O)[C@H](Cc2ccc(C)cc2)N2CC/C=C\\C[C@@H](C2=O)N(C)C(=O)CN(C)C1=O", "note": "[PP1905]", "values": [{"measurement": "HRAS/KRAS (KD ratio)", "setting": "[1]; ratio of KD for GDP-bound HRAS wild-type protein to KD for KRAS, SPR", "value": "A (a compound having 10 or more and less than 20 is denoted as A)"}, {"measurement": "NRAS/KRAS (KD ratio)", "setting": "[2]; ratio of KD for GDP-bound NRAS wild-type protein to KD for KRAS, SPR", "value": "A (a compound having 10 or more and less than 20 is denoted as A)"}]}
{"smiles": "CCC[C@H]1C(=O)N[C@@H]([C@@H](C)CC)C(=O)N(C)CC(=O)N(C)[C@H]2C/C=C\\CCN(C2=O)[C@@H](Cc2ccc(C(F)(F)F)cc2)C(=O)N(C)CC(=O)N[C@@H](CCc2ccc(C3CC3)c(C)c2)C(=O)N2C[C@H](OCC)C[C@H]2C(=O)NC2(CC(C)(C)C2)C(=O)N(C)[C@@H](C2CCCC2)C(=O)N(C)[C@H](C(=O)N(C)C)CC(=O)N1C", "note": "[PP2855]", "values": [{"measurement": "HRAS/KRAS (ratio of KD value with respect to GDP-bound HRAS wild-type protein to KD value with respect to KRAS)", "setting": "[1]", "value": "A (a compound having 10 or more and less than 20 is denoted as A)"}, {"measurement": "NRAS/KRAS (ratio of KD value with respect to GDP-bound NRAS wild-type protein to KD value with respect to KRAS)", "setting": "[2]", "value": "A (a compound having 10 or more and less than 20 is denoted as A)"}]}
{"smiles": "CCC(CC)[C@H]1C(=O)N(C)[C@H](C(=O)N(C)C)CC(=O)N(C)[C@@H](COC)C(=O)N[C@@H]([C@@H](C)CC)C(=O)N(C)CC(=O)N(C)[C@H]2C/C=C\\CCN(C2=O)[C@@H](Cc2ccc(C)cc2)C(=O)N(C)CC(=O)N[C@@H](CCc2ccc(Cl)c(Cl)c2)C(=O)N2C[C@H](OC(C)C)C[C@H]2C(=O)N(C)C2(CC(C)(C)C2)C(=O)N1C", "note": "[PP2814]", "values": [{"measurement": "HRAS/KRAS (ratio of KD value with respect to GDP-bound HRAS wild-type protein to KD value with respect to KRAS)", "setting": "[1]", "value": "A (a compound having 10 or more and less than 20 is denoted as A)"}, {"measurement": "NRAS/KRAS (ratio of KD value with respect to GDP-bound NRAS wild-type protein to KD value with respect to KRAS)", "setting": "[2]", "value": "AA (a compound having 20 or more is denoted as AA)"}]}
{"smiles": "CCCOC[C@H]1C(=O)N[C@@H]([C@@H](C)CC)C(=O)N(C)CC(=O)N(C)[C@H]2C/C=C\\CCN(C2=O)[C@@H](Cc2ccc(C)cc2)C(=O)N(C)CC(=O)N[C@@H](CCc2cc(F)c(C(F)(F)F)c(F)c2)C(=O)N2C[C@H](C)C[C@H]2C(=O)NC2(CCCC2)C(=O)N(C)[C@@H](C2CCCC2)C(=O)N(C)[C@H](C(=O)N(C)C)CC(=O)N1C", "note": "[PP2225]", "values": [{"measurement": "HRAS/KRAS (ratio of KD value for HRAS to KD value for KRAS)", "setting": "[1]; SPR", "value": "A (a compound having 10 or more and less than 20 is denoted as A)"}, {"measurement": "NRAS/KRAS (ratio of KD value for NRAS to KD value for KRAS)", "setting": "[2]; SPR", "value": "A (a compound having 10 or more and less than 20 is denoted as A)"}]}
{"smiles": "CC[C@H](C)[C@@H]1NC(=O)[C@H](CC(C)C)N(C)C(=O)C[C@@H](C(=O)N2CCOCC2)N(C)C(=O)[C@H](C2CCCC2)N(C)C(=O)C2(CCC2)NC(=O)[C@@H]2[C@H](O)CCN2C(=O)[C@H](CCc2cc(F)c(C(F)(F)F)c(F)c2)NC(=O)CN(C)C(=O)[C@H](Cc2ccc(C(F)(F)F)cc2)N2CCCCC[C@@H](C2=O)N(C)C(=O)CN(C)C1=O", "note": "[PP0873]", "values": [{"measurement": "HRAS/KRAS (ratio of KD value for HRAS to KD value for KRAS)", "setting": "[1]; SPR", "value": "B (a compound having 3 or more and less than 10 is denoted as B)"}, {"measurement": "NRAS/KRAS (ratio of KD value for NRAS to KD value for KRAS)", "setting": "[2]; SPR", "value": "A (a compound having 10 or more and less than 20 is denoted as A)"}]}
{"smiles": "CCO[C@@H]1C[C@H]2C(=O)NC3(CCC3)C(=O)N(C)[C@@H](C3CCCC3)C(=O)N(C)[C@H](C(=O)N(C)CC)CC(=O)N(C)[C@@H](CC(C)C)C(=O)N[C@@H]([C@@H](C)CC)C(=O)N(C)CC(=O)N(C)[C@H]3C/C=C\\CCN(C3=O)[C@@H](Cc3ccc(C(F)(F)F)cc3)C(=O)N(C)CC(=O)N[C@@H](CCc3ccc(C(F)(F)F)c(Cl)c3)C(=O)N2C1", "note": "[PP2847]", "values": [{"measurement": "HRAS/KRAS (ratio of KD value with respect to GDP-bound HRAS wild-type protein to KD value with respect to KRAS)", "setting": "[1]", "value": "A (a compound having 10 or more and less than 20 is denoted as A)"}, {"measurement": "NRAS/KRAS (ratio of KD value with respect to GDP-bound NRAS wild-type protein to KD value with respect to KRAS)", "setting": "[2]", "value": "A (a compound having 10 or more and less than 20 is denoted as A)"}]}
{"smiles": "CC[C@H](C)[C@@H]1NC(=O)[C@H](CC(C)C)N(C)C(=O)C[C@@H](C(=O)N2CCOCC2)N(C)C(=O)[C@H](C2CCCC2)N(C)C(=O)C2(CCC2)NC(=O)[C@@H]2[C@H](OC)CCN2C(=O)[C@H](CCc2cc(F)c(C(F)(F)F)c(F)c2)NC(=O)CN(C)C(=O)[C@H](Cc2ccc(C(F)(F)F)cc2)N2CCCC[C@@H](C2=O)N(C)C(=O)CN(C)C1=O", "note": "[PP1078]", "values": [{"measurement": "HRAS/KRAS (ratio of KD value for HRAS to KD value for KRAS)", "setting": "[1]; SPR", "value": "B (a compound having 3 or more and less than 10 is denoted as B)"}, {"measurement": "NRAS/KRAS (ratio of KD value for NRAS to KD value for KRAS)", "setting": "[2]; SPR", "value": "B (a compound having 3 or more and less than 10 is denoted as B)"}]}
{"smiles": "CCO[C@@H]1C[C@H]2C(=O)NC3(CCC3)C(=O)N(C)[C@@H](C3CCCC3)C(=O)N(C)[C@H](C(=O)N(C)C)CC(=O)N(C)[C@@H](CC(C)C)C(=O)N[C@@H]([C@@H](C)CC)C(=O)N(C)CC(=O)N(C)[C@H]3CCCCCN(C3=O)[C@@H](Cc3ccc(F)cc3)C(=O)N(C)CC(=O)N[C@@H](CCc3ccc(C(F)(F)F)c(Cl)c3)C(=O)N2C1", "note": "[PP0972]", "values": [{"measurement": "HRAS/KRAS (ratio of KD value for HRAS to KD value for KRAS)", "setting": "[1]; SPR", "value": "B (a compound having 3 or more and less than 10 is denoted as B)"}, {"measurement": "NRAS/KRAS (ratio of KD value for NRAS to KD value for KRAS)", "setting": "[2]; SPR", "value": "B (a compound having 3 or more and less than 10 is denoted as B)"}]}
{"smiles": "CCO[C@@H]1C[C@H]2C(=O)NC3(CCC3)C(=O)N(C)[C@@H](C3CCCC3)C(=O)N(C)[C@H](C(=O)N(C)C)CC(=O)N(C)[C@@H](CC)C(=O)N[C@@H]([C@@H](C)CC)C(=O)N3CCCC[C@H]3C(=O)N(C)[C@H]3C/C=C\\CCN(C3=O)[C@@H](Cc3ccc(C(F)(F)F)cc3)C(=O)N(C)CC(=O)N[C@@H](CCc3cc(F)c(C(F)(F)F)c(F)c3)C(=O)N2C1", "note": "[PP1058]", "values": [{"measurement": "HRAS/KRAS (ratio of KD value for HRAS to KD value for KRAS)", "setting": "[1]; SPR", "value": "B (a compound having 3 or more and less than 10 is denoted as B)"}, {"measurement": "NRAS/KRAS (ratio of KD value for NRAS to KD value for KRAS)", "setting": "[2]; SPR", "value": "A (a compound having 10 or more and less than 20 is denoted as A)"}]}
{"smiles": "CCO[C@@H]1C[C@H]2C(=O)NC3(CCC3)C(=O)N(C)[C@@H](C(CC)CC)C(=O)N(C)[C@H](C)CC(=O)N(C)[C@@H](CC(C)C)C(=O)N[C@@H]([C@@H](C)CC)C(=O)N(C)CC(=O)N(C)[C@H]3C/C=C\\CCN(C3=O)[C@@H](Cc3ccc(F)cc3C)C(=O)N(C)CC(=O)N[C@@H](CCc3cc(F)c(C(F)(F)F)c(F)c3)C(=O)N2C1", "note": "[PP1524]", "values": [{"measurement": "HRAS/KRAS (ratio of KD value for HRAS to KD value for KRAS)", "setting": "[1]; SPR, KD ratio class", "value": "B (a compound having 3 or more and less than 10 is denoted as B)"}, {"measurement": "NRAS/KRAS (ratio of KD value for NRAS to KD value for KRAS)", "setting": "[2]; SPR, KD ratio class", "value": "B (a compound having 3 or more and less than 10 is denoted as B)"}]}
{"smiles": "CCC[C@@H]1C[C@H]2C(=O)NC3(CCC3)C(=O)N(C)[C@@H](C3CCCC3)C(=O)N(C)[C@H](C(=O)N(C)C)CC(=O)N(C)[C@@H](CC)C(=O)N[C@@H]([C@@H](C)CC)C(=O)N(C)CC(=O)N(C)[C@H]3C/C=C\\CCN(C3=O)[C@@H](Cc3ccc(C)cc3)C(=O)N(C)CC(=O)N[C@@H](CCc3cc(F)c(C(F)(F)F)c(F)c3)C(=O)N2C1", "note": "[PP2233]", "values": [{"measurement": "HRAS/KRAS (ratio of KD value for HRAS to KD value for KRAS)", "setting": "[1]; SPR", "value": "A (a compound having 10 or more and less than 20 is denoted as A)"}, {"measurement": "NRAS/KRAS (ratio of KD value for NRAS to KD value for KRAS)", "setting": "[2]; SPR", "value": "A (a compound having 10 or more and less than 20 is denoted as A)"}]}
{"smiles": "CCO[C@@H]1C[C@H]2C(=O)NC3(CCC3)C(=O)N(C)[C@@H](C3CCCC3)C(=O)N(C)[C@H](C(=O)N(C)C)CC(=O)N(C)[C@@H](CC3CC3)C(=O)N[C@@H]([C@@H](C)CC)C(=O)N(C)CC(=O)N(C)[C@H]3C/C=C\\CCN(C3=O)[C@@H](Cc3ccc(F)cc3C)C(=O)N(C)CC(=O)N[C@@H](CCc3cc(F)c(C(F)(F)F)c(F)c3)C(=O)N2C1", "note": "[PP1528]", "values": [{"measurement": "HRAS/KRAS (ratio of KD value for HRAS to KD value for KRAS)", "setting": "[1]; SPR, KD ratio class", "value": "B (a compound having 3 or more and less than 10 is denoted as B)"}, {"measurement": "NRAS/KRAS (ratio of KD value for NRAS to KD value for KRAS)", "setting": "[2]; SPR, KD ratio class", "value": "A (a compound having 10 or more and less than 20 is denoted as A)"}]}
